Assay results as given in patent US8629241B2, “Alpha helical mimics, their uses and methods for their production” (The University of Queensland, priority 2004, dated 2014).
Where a SMILES comes first, the peptide text is derived from it. Bridges are numbered along the chain shown (N, C = ends). [ ]: non-standard residue; d: D form. hArg = N=C(N)NCCCC[C@H](N)C(=O)O; Flu = fluorescein; βAla = NCCC(=O)O; Mpa = O=C(O)CCS

What was measured:
[1] = Stability against denaturants (guanidine.HCl, temperature) followed by CD; assay type: physicochemical; details: 8M guanidinium chloride, 25° C
Description: Proteolytic stability of the helix. trypsin digestion
The helical macrocycles were conformationally very stable even under protein-denaturing conditions, as illustrated by the low dependence of their CD spectra on temperature between 5-65° C. (FIG. 9a) and on the concentration of guanidine.HCl (FIG. 9b).
(§1) CD experiments were performed on a Jasco Model J-710 spectropolarimeter which was routinely calibrated with (1S)-(+)-10-camphorsulfonic acid. Temperature control was achieved using a Neslab RTE-111 circulating water bath. Spectra were recorded in a 0.1 cm Jasco cell between 310-185 nm at 50 nm/min with a band width of 1.0 nm, response time of 2 sec, resolution step width of 0.1 nm and sensitivity of 20, 50 or 100 mdeg. Each spectrum represents the average of 5 scans with smoothing to reduce noise. Peptide samples for CD spectroscopy were dissolved in distilled water (˜1 mg/mL). Each stock solution was diluted to a final concentration of 50 μM in 10 mM sodium phosphate buffer (pH7.4), with or without additives (2,2,2-trifluoroethanol (TFE) or guanidine.HCl). Guanidine.HCl denaturation experiments were performed according to Creighton^105.

Serum stability = assay type: in vitro ADME; details: 1 h, 37° C
Description: Standard solutions of Ac—KARAD-NH2 and Ac—(cyclo-1,5)-KARAD-NH2 (1 mg/mL) were prepared in water. 200 μL of each peptide was added to human serum 800 μL and incubated at 37° C. Acetonitrile/water 3:1 (300 μL) was added to aliquots (100 μL) of serum at 5, 15, 30, 45 and 60 minutes to precipitate serum proteins, which were removed by centrifugation. The decanted supernatant was analyzed by LC-MS MS with a 2.1×150 mm Phenomenex 300 Å C18 5 um column, using a 3% per minute linear gradient from 0%-60% acetonitrile over 20 minutes. The amount of starting material left in each sample was quantified by determination of total ion counts for the molecular ion.

trypsin [2] = assay: Proteolytic stability of the helix, trypsin digestion (Example 10); assay type: in vitro ADME; details: pH 8.2, room temperature, 1 to 155 minutes
Description: A standard solution of Ac—KARAD-NH2 and Ac—(cyclo-1,5)-KARAD-NH2 (1 mg/mL) was prepared in 100 mM ammonium carbonate buffer at pH˜8.2. To 100 μL of each solution was added 1 mg/mL of trypsin (1 μL). The digest was conducted at room temperature with 5 μL aliquots taken at 1, 4, 8, 28, 48, 55, 110, 155 minutes. Aliquots were diluted with 5 μL of 3% TFA to stop the reaction. and analyzed by LC-MS using 2.1×150 mm Phenomenex 300 Å C18 5 μm column, with a 3% per minute linear gradient of 0-60% acetonitrile over 20 minutes. The amount of starting material left in each sample was quantified by determination of total ion counts for the molecular ion.
Compound of SEQ ID NO 8 and its acyclic version SEQ ID NO: 14 were incubated with trypsin (pH 8.2), aliquots removed at intervals between 1 and 155 minutes, and analyzed by LCMS. […] Similarly the cyclic compound 8 was not degraded by human serum (1 h, 37° C.). […] This is consistent with other observations that only an extended or linear peptide conformation is recognized, not only by trypsin, but by all proteolytic enzymes^125 Presumably the cycle is too tightly locked into an alpha helical turn to permit significant unwinding to the extended format needed for recognition by trypsin.

[3] = assay type: physicochemical; details: for θ222/θ208 / [θ]192 / [θ]208 / [θ]222: Table 8; for [θ]192 / [θ]208 / [θ]222: one or more cyclic pentapeptide modules versus linear peptides; for Relative helicity: [θ]215 relative to SEQ ID NO: 8; for Relative helicity / [θ]190 / [θ]207 / [θ]215 / θ215/θ207: 10 mM phosphate buffer, pH 7.4, 25° C; for % helicity: fH × 100, [θ∞H]222 = −44000, k = 2.6; for [θ]190: molar elipticity at 190 nm; for [θ]207: molar elipticity at 207 nm; for [θ]215: molar elipticity at 215 nm; for θ215/θ207: ratio of elipticities
Description: Circular Dichroism (CD) was performed on peptides having SEQ ID NOs: 8 to 14 and 18 to 31, using methods described above. The molar elipticities at 222 nm, 208 nm and 190 nm, ratios of elipticities at 222 nm/208 nm and relative helicity are shown in Tables 6 and 7.
Assuming that mean alpha helix content (fH) is linearly related to elipticity at 222 nm, or in our case 215 nm ([θ]obs215), then the equation for calculating helix content is: fH=([θ]obs215−[θ]C)/([θ]∞215−[θ]C) (1) Luo and Baldwin^22 determined that the random coil ([θ]C) and infinite alpha helix ([θ]∞222) molar elipticities are temperature dependent based on the equations: [θ]C=2220−53T (2a) [θ]∞215=(−44000+250T)(1−k/Np) (2b) where T is temperature in degrees Celsius, Np is the number of peptide units, and k is a finite length correction.
CD was performed on peptides having one [SEQ ID NO: 8] or more than one modular macrocycle [SEQ ID NOs: 46 and 47], as compared with corresponding linear peptides, Ac[KARAD]n—NH2 where n=1 [SEQ ID NO: 14], n=2 [SEQ ID NO: 54] and n=3 [SEQ ID NO: 55]. The molar elipticities at 222 nm, 208 nm and 190 nm, ratios of elipticities at 222 nm/208 nm and percentage helicity are shown in Table 8.
as §1
1D ^1H NMR spectra were then recorded with presaturation and a relaxation delay (d1) of 30 seconds to allow for full relaxation of peptide and DSS^1H signals to facilitate accurate integration of proton signals with S/N>250:1. This method provides reproducible concentrations within ±2%.
CD data in ellipticity was converted to mean peptide ellipticity using the equation: [θ]=θ/(10×C×Np×1) where θ is the ellipticity in millidegrees, C is the peptide molar concentration (M), 1 is the cell path length (cm), and Np is the number of peptide units (ie. pentapeptides […], 10 & 11 Np=5, 12 Np=4.)
Relative helicities were employed to allow scaling of compounds by dividing the [θ]obs215(8)/[θ]obs215(x) for pentapeptides, and [θ]obs215(24)/[θ]obs215(x) for hexapeptides.

MDM2 [4] = biological target: T1, MDM2 (Homo sapiens, UniProt Q00987); details: read-out: dissociation constant; cited from earlier work
T1 sequence (Q00987 whole entry): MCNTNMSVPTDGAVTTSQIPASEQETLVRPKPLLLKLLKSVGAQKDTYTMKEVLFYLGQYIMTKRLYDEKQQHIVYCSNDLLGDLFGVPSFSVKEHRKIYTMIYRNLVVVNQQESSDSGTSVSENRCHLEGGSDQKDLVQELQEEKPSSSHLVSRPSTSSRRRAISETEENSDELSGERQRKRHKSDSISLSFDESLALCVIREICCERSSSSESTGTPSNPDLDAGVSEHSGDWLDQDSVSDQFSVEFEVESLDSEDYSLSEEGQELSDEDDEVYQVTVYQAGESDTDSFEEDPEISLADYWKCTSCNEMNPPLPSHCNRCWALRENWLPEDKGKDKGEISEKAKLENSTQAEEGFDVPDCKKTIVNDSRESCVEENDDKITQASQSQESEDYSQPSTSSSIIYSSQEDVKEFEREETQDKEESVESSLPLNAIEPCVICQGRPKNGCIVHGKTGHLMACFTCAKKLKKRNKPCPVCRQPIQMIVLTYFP

Bcl-2 = Bcl-2 (Homo sapiens, UniProt P10415); details: read-out: dissociation constant; cited from earlier work
Chain of Bcl-2 (P10415 whole entry, species assumed): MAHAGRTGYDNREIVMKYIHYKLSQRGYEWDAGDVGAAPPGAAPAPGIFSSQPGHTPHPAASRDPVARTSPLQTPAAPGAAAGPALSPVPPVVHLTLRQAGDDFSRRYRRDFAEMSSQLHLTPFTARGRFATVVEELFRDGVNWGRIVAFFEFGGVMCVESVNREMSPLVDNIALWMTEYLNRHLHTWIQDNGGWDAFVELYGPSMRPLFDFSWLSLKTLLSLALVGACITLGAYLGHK

Bcl-xL = Bcl-xL (Homo sapiens, UniProt Q07817); details: read-out: dissociation constant; cited from earlier work
Chain of Bcl-xL (Q07817 whole entry, species assumed): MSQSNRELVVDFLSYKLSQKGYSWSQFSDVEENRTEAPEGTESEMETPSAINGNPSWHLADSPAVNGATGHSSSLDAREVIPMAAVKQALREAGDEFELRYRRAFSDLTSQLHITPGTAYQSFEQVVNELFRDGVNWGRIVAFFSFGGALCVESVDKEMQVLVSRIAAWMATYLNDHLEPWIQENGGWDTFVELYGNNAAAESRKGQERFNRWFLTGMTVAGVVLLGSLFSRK

trypsin [5] = assay: in vitro; assay type: in vitro ADME; details: isolated enzyme trypsin, pH 8
Description: Solutions of SEQ ID NO: 46 (25 μM) and linear peptide SEQ ID NO: 54 (26 μM) were incubated with trypsin (1 μg/mL) in 25 mM ammonium carbonate buffer (pH=8) at room temperature. Aliquots were taken at 30 seconds, 1 minute, 5 minutes, 15 minutes, 30 minutes, 1 hour and 2 hours, and diluted with an equivalent volume of 3% trifluoroacetic acid. The resultant solutions were analyzed using a 2×75 mm, 3 μm, Aqua C-18 column (Phenomenex) equilibrated in aqueous formic acid (0.1%). Peptide cleavage products were eluted using a linear gradient of acetonitrile from 0 to 80% in aqueous 0.01% formic acid over 20 minutes at a rate of 300 μL/min. Rate of degradation of either SEQ ID NO: 32 or SEQ ID NO: 43 was quantified by determining extracted ion counts of chromatograms relative to control solutions (containing no enzyme) using a QSTAR PULSAR Electrospray QqTOF Mass Spectrometer and analyzed using BioMultiview (SCIEX Software). Retention time of SEQ ID NO: 46=11.64 minutes. Retention time of linear peptide SEQ ID NO: 54=7.43 minutes. SEQ ID NO: 46 was also found to be highly resistant to proteolytic cleavage by trypsin (97% recovered intact after 2 h), whereas the linear peptide […] (SEQ ID NO: 54) was completely degraded within 30 seconds.

thrombin = thrombin (Homo sapiens, UniProt P00734); details: cited from earlier work
trypsin [6] = details: cited from earlier work
[7] = phase III; patients at risk of abrupt vessel closure after coronary angioplasty; cited from earlier work
MDM2 [8] = biological target: T1, MDM2; details: cited from earlier work

**Q.** What does the source list for CC(=O)N[C@H]1CCCCNC(=O)C[C@@H](C(N)=O)NC(=O)[C@H](C)NC(=O)[C@H](CCCNC(=N)N)NC(=O)[C@H](C)NC1=O [SEQ ID NO: 8, Ac-(cyclo-1,5)-[KARAD]-NH2] (Ac-KARAD-NH2; lactam 1-5)?
**A.** alpha helicity (molar elipticity at 215 nm) in denaturant [1]: maintains full alpha helicity; degradation by human serum (Serum stability): not degraded; stability to trypsin (starting material left, LCMS) (trypsin [2]): remained intact; molar elipticity at 215 nm in helix stabilizing solvent [3]: does not increase; θ222/θ208 [3]: 0.98; [θ]192 [3]: 52191 degcm^2dmol^−1residue^−1; [θ]208 [3]: −17039 degcm^2dmol^−1residue^−1; [θ]222 [3]: −15464 degcm^2dmol^−1residue^−1; Relative helicity [3]: 1.00; percentage helicities ([3]; equation 2b with k˜4, assuming 8 has 100% helicity): 100%; % helicity [3]: 79%; helicity on variation of the k factor ([3]; k factor from 2.4 to 4.5): 56-135%; [θ]190 [3]: 38300 deg.cm^2.dmol^−1.residue^−1; [θ]207 [3]: −12211 deg.cm^2.dmol^−1.residue^−1; [θ]215 [3]: −12757 deg.cm^2.dmol^−1.residue^−1; θ215/θ207 [3]: 1.04

**Q.** With Ac—FR(Dpr-Flu)(Ac6c)(6-Br—W)EEL-NH2 as the compound, how does the Kd (MDM2 [4]) read?
**A.** 2 nM

**Q.** What does the source list for “Flu-βANLWAAQRYGRELRRMSDKKFVDSFKK-NH2 ({Flu-βAla}-ANLWAAQRYGRELRRMSDKKFVDSFKK-NH2)”?
**A.** Kd (Bcl-2): 3 nM; Kd (Bcl-xL): 0.6 nM

**Q.** With CC(=O)N[C@H]1CCCCNC(=O)C[C@@H](C(=O)N[C@H]2CCCCNC(=O)C[C@@H](C(N)=O)NC(=O)[C@H](C)NC(=O)[C@H](CCCNC(=N)N)NC(=O)[C@H](C)NC2=O)NC(=O)[C@H](C)NC(=O)[C@H](CCCNC(=N)N)NC(=O)[C@H](C)NC1=O [SEQ ID NO: 46] (Ac-KARADKARAD-NH2; lactam 1-5, 6-10) as the compound, how does the remaining at 2 h, 25 μM (trypsin [5]) read?
**A.** 97%

**Q.** And the θ222/θ208 [3]?
**A.** 1.29

**Q.** And the “[θ]192” value [3]?
**A.** 104187 degcm^2dmol^−1residue^−1

**Q.** What about the “[θ]208” value [3] of the same compound?
**A.** −24957 degcm^2dmol^−1residue^−1

**Q.** What about the “[θ]222” value [3] of the same compound?
**A.** −32340 degcm^2dmol^−1residue^−1

**Q.** And the “% helicity” value [3]?
**A.** 99%

**Q.** For N=C(N)NCCC[C@@H]1NC(=O)[C@@H]2CCCN2C(=O)[C@@H](NC=O)CNC(=O)/C=C/C(Cc2ccc(O)cc2)NC(=O)[C@@H](Cc2ccccc2)NC(=O)C1=O (stereo partly shown) [Cyclotheonamide A], which Ki (thrombin) is on record?
**A.** 180 nM

**Q.** What about the Ki (trypsin [6]) of the same compound?
**A.** 23 nM

**Q.** Which results are given for CC(=O)N[C@@H](CCCCN)C(=O)N[C@@H](C)C(=O)N[C@@H](CCCNC(=N)N)C(=O)N[C@@H](C)C(=O)N[C@@H](CC(=O)O)C(N)=O [SEQ ID NO: 14, Ac-[KARAD]-NH2] (Ac-KARAD-NH2)?
**A.** stability to trypsin (starting material left, LCMS) (trypsin [2]): completely hydrolyzed within a few minutes; θ222/θ208 [3]: 0.12; [θ]192 [3]: −14779 degcm^2dmol^−1residue^−1; [θ]208 [3]: −5758 degcm^2dmol^−1residue^−1; [θ]222 [3]: −732 degcm^2dmol^−1residue^−1; Relative helicity [3]: 0.04; % helicity [3]: 0.8%; [θ]190 [3]: −7372 deg.cm^2.dmol^−1.residue^−1; [θ]207 [3]: −5555 deg.cm^2.dmol^−1.residue^−1; [θ]215 [3]: −524 deg.cm^2.dmol^−1.residue^−1; θ215/θ207 [3]: 0.09

**Q.** For N=C(N)NCCCC[C@@H]1NC(=O)CCSSC[C@@H](C(N)=O)NC(=O)[C@@H]2CCCN2C(=O)[C@H](Cc2c[nH]c3ccccc23)NC(=O)[C@H](CC(=O)O)NC(=O)CNC1=O [eptifibatide] ([Mpa][hArg]GDWPC-NH2; disulfide 1-7), which “incidence of cardiac events” value [7] is on record?
**A.** reduce the incidence of cardiac events

**Q.** Which IC50 (MDM2 [8]) does the source give for “Acetyl-Phe-Met-Aib-Pmp-6C1W-Glu-Ac3c-Leu-NH2” here?
**A.** 5 nM
